Measured values: PMC7797213, “Vascular effects of serelaxin in patients with stable coronary artery disease: a randomized placebo-controlled trial” (Cardiovascular Research, 2020)

What was measured:
Assay type in all cases: in vivo, human
cystatin C = assay: Plasma biomarker cystatin C; details: for Cystatin C, geo-mean (95% CI): plasma
Experimental: Biomarkers reported include: N-terminal pro-brain natriuretic peptide (NT-proBNP), high-sensitivity troponin T (hsTnT) measured to assess myocardial safety; cystatin C measured to access renal function; the biologically active form of endothelin-1 (1–21), measured to assess vascular function. Venous blood samples were collected at 0 (pre-dose), 24, 48, and 54 h, Day 30, and Day 180. NT-proBNP, hsTnT, and cystatin C samples were collected in EDTA tubes while endothelin-1 samples were collected in EDTA tubes containing aprotinin. Plasma was immediately frozen at −70°C pending analysis in complete patient sets. Commercial biomarker kits were as follows: hsTnT from Roche Diagnostics GmbH, Germany; cystatin C from Gentian, Moss, Norway; and active endothelin-1 […] from Biomedica Medizinprodukte, Vienna, Austria.
For the biomarker analyses, baseline was defined as the pre-dose assessment on Day 1. Raw values as well as changes from baseline were summarized by treatment and time. Descriptive statistics included geometric mean and 95% CI. For geometric means of change from baseline, a ratio to baseline was used to determine percentage change by first calculating in the log domain and then back transforming using exponentiation.
Baseline corresponds to the value at day 1 pre-dose. For change from baseline, geometric mean and its CI are calculated for the value (post) to baseline ratio.

[1] = Serum serelaxin pharmacokinetics (ELISA, non-compartmental)
Experimental: Blood samples (approximately 2 mL) for pharmacokinetic (PK) evaluation were collected at 0 (pre-dose), 24, 48, 50, and 54 h, and Day 30. Serum serelaxin concentration was determined by an enzyme-linked immunosorbent assay, developed and validated based upon a commercially available kit (Quantikine ELISA kit, R&D systems, MN, USA).[29] The PK parameters were calculated using non-compartmental methods that included steady-state concentration (Css) and systemic clearance (CL). Css was estimated using the serum concentration determined at 48 h, while CL was estimated using the rate of infusion and Css for each patient.

[2] = tested on: patients with stable coronary artery disease; assay: CMR left and right ventricular volumes and ejection fraction
Description: A standardized CMR protocol was acquired on 1.5 T (Siemens Avanto) or 3.0 T (Siemens Skyra and Verio) magnetic resonance imaging (MRI) scanners. The CMR protocol included standard localizers, long- and short-axis cine acquisitions, stress and rest first-pass perfusion, and late gadolinium enhancement (LGE) imaging as previously described.[24] For perfusion imaging, a saturation recovery prepared fast gradient echo sequence was used to acquire dynamic contrast-enhanced CMR during adenosine stress (140–280 µg/kg/min for 3 min) and rest, during first-pass of the IV administered contrast agent (Gadovist, 0.05 mmol/kg, 5 mL/s), followed by 20 mL saline injection (5 mL/s). Three short-axis planes through the left ventricle (basal, mid-ventricular, and apical) were obtained. […]
CMR image collection, blinding, and handling were managed by an independent imaging contract-research organization (CRO; VirtualScopics, Inc., Rochester, NY, USA). The CMR quantitative analyses were performed by blinded academic readers with >3 years of CMR experience (D.C., A.R., and C.B.). […] Global MPR was calculated from the ratio of global MBF evaluated at stress and at rest (MPR = stress MBF/rest MBF). Global MBF was calculated by averaging the MBF (mL/g/min) for basal, mid, and apical short-axis left ventricular slices. […] The presence or absence of myocardial scar was qualitatively assessed on the LGE images.

[3] = tested on: patients with stable coronary artery disease; assay: Applanation tonometry-derived augmentation index (AIx); details: for AIx, absolute value: mean ± SD; for AIx, adjusted mean difference serelaxin versus placebo / AIx, change from baseline (adjusted mean): repeated measures ANCOVA
Experimental: (30 μg/kg/day) or matching placebo, using a computerized randomization system involving concealed treatment arms. The co-primary endpoints were the change from baseline in global myocardial perfusion reserve (MPR) measured by quantitative perfusion cardiac magnetic resonance (CMR) imaging and the change from baseline in augmentation index (AIx) measured by applanation tonometry. The primary endpoints of MPR and AIx were assessed at baseline and 47 h post-commencement of the infusion (Figure 1).
The applanation tonometry assessments were performed by blinded operators. Augmentation index [AIx = (augmentation pressure/pulse pressure) × 100], and carotid-femoral PWV were measured by applanation tonometry (Sphygmocor®, AtCor Medical, Australia) at a proximal (carotid artery) and a distal (femoral artery) site of the body, utilizing R-wave gated determination of the time interval between the two measurement points. An averaged carotid pressure waveform (from a 10 s recording) was converted into a corresponding central waveform using a validated transfer function (SphygmoCor®, AtCor, Australia).[27]^,[28]

## Serelaxin
Cystatin C; 24 h, n=27
  Cystatin C change from baseline, geometric mean ratio to baseline (95% CI): 0.92 (0.89, 0.94)
  Cystatin C, geo-mean (95% CI): 0.839 (0.788, 0.893) mg/L
Cystatin C; 48 h, n=28
  Cystatin C change from baseline, geometric mean ratio to baseline (95% CI): 0.93 (0.91, 0.96)
  Cystatin C, geo-mean (95% CI): 0.867 (0.812, 0.926) mg/L
Cystatin C; 48 h, n=28, listed as serelaxin
  Cystatin C change from baseline, geometric mean ratio to baseline (95% CI): 0.93
Cystatin C; 54 h, n=27
  Cystatin C change from baseline, geometric mean ratio to baseline (95% CI): 0.87 (0.80, 0.94)
  Cystatin C, geo-mean (95% CI): 0.796 (0.721, 0.878) mg/L
Cystatin C; 54 h, n=27, listed as serelaxin
  Cystatin C change from baseline, geometric mean ratio to baseline (95% CI): 0.87
Cystatin C; Day 30, n=29
  Cystatin C change from baseline, geometric mean ratio to baseline (95% CI): 0.97 (0.93, 1.00)
  Cystatin C, geo-mean (95% CI): 0.899 (0.842, 0.960) mg/L
Cystatin C; Day 180, n=29
  Cystatin C change from baseline, geometric mean ratio to baseline (95% CI): 0.98 (0.89, 1.07)
  Cystatin C, geo-mean (95% CI): 0.908 (0.821, 1.004) mg/L
Cystatin C; 0 h (pre-dose baseline), n=29
  Cystatin C, geo-mean (95% CI): 0.931 (0.876, 0.990) mg/L
Cystatin C; 0 h (pre-dose baseline), n=29, listed as serelaxin
  Cystatin C, geo-mean (95% CI): 0.93 mg/L
[1]; estimated from rate of infusion and Css, 48 h IV infusion 30 µg/kg/day
  Systemic clearance (CL), geometric mean: 1.38 mL/min/kg
[1]; serum concentration at 48 h of 48 h IV infusion 30 µg/kg/day, ELISA, non-compartmental
  Steady-state serum concentration (Css), geometric mean: 15.1 ng/mL
[2]; baseline to 47 h, CMR
  Left and right ventricular volumes and ejection fractions, change from baseline compared with placebo: no statistically significant changes
[2]; remained in the normal range, no significant changes with serelaxin treatment
  Left ventricular ejection fraction, mean value: 63%
[3]; 0 h (pre-dose baseline), n=25
  AIx, absolute value: 25.81 ± 7.70 (25) %
[3]; 2 h
  AIx, adjusted mean difference serelaxin versus placebo: -2.12%
[3]; 2 h, n=23
  AIx, change from baseline (adjusted mean): -4.09%
[3]; 2 h post-dose, n=23
  AIx, absolute value: 22.17 ± 10.09 (23) %
[3]; 6 h
  AIx, adjusted mean difference serelaxin versus placebo: -2.88%
[3]; 6 h, n=24
  AIx, change from baseline (adjusted mean): -3.28%
[3]; 6 h post-dose, n=24
  AIx, absolute value: 22.96 ± 6.95 (24) %
[3]; 24 h
  AIx, adjusted mean difference serelaxin versus placebo: –0.84%
[3]; 24 h, n=24
  AIx, change from baseline (adjusted mean): -0.77%
[3]; 24 h post-dose, n=24
  AIx, absolute value: 25.08 ± 8.10 (24) %
[3]; 47 h
  AIx, adjusted mean difference serelaxin versus placebo: 3.45%
[3]; 47 h, n=23
  AIx, change from baseline (adjusted mean): 3.49%
[3]; 47 h post-dose, n=23
  AIx, absolute value: 29.57 ± 9.75 (23) %
[3]; 50 h
  AIx, adjusted mean difference serelaxin versus placebo: 3.25%
[3]; 50 h, n=22
  AIx, change from baseline (adjusted mean): -0.76%
[3]; 50 h post-dose, n=22
  AIx, absolute value: 24.89 ± 12.50 (22) %
[3]; 54 h
  AIx, adjusted mean difference serelaxin versus placebo: -0.98%
[3]; 54 h, n=22
  AIx, change from baseline (adjusted mean): -1.74%
[3]; 54 h post-dose, n=22
  AIx, absolute value: 24.70 ± 10.62 (22) %
[3]; Day 30, n=25
  AIx, absolute value: 24.98 ± 9.05 (25) %
  AIx, change from baseline (adjusted mean): -0.98%
[3]; Day 30
  AIx, adjusted mean difference serelaxin versus placebo: -1.76%
[3]; Day 180, n=24
  AIx, absolute value: 26.15 ± 8.97 (24) %
  AIx, change from baseline (adjusted mean): 0.23%
[3]; Day 180
  AIx, adjusted mean difference serelaxin versus placebo: -0.05%
[3]; Day 180, listed as serelaxin
  AIx, adjusted mean difference serelaxin versus placebo: −0.05%
